This is an account of results in patent US20120070476A1, “Compositions and Methods for Inactivation of Pathogens at Genital Tract Surfaces” (priority 2009, published 2012).

Series [1] concerns Herpes simplex virus type-1 (HSV-1). The experiment in a line: Inactivation of HSV-1 (KOS strain) by acidified exposure media. The class given is cell-based. As to conditions: 0.1%, pH 3.8, 30-minute exposure.
In series [2] the test system is Herpes simplex virus type 2 (HSV-2). The series can be described thus: Inactivation of cell-free HSV-2 by acidified exposure media, titred on Elvis cells. The format is cell-based. The following applies: 0.1% acid, pH 3.8, 30 minutes, 37° C. Here is the method: The effect of low pH alone, and low pH in the presence of racemic lactic acid, L-lactic acid, and D-lactic acid on the survival of Herpes simplex virus type 2 (HSV-2) was assessed. Cell-free HSV-2 (ATCC VR-734™ strain 9, American Type Culture Collection, Manassas, Va.) was aliquoted, stored at −80° C., and thawed immediately before its use. Elvis™ (Enzyme-linked Virus Inducible System™) cells (Diagnostic Hybrids, Athens Ohio) were supplied growing in flat-bottomed, 96-well microplates. Each plate was kept in a humidified incubator (5% CO2, 37° C.) until the cells were between 75% and 95% confluent. The supplier's original growth medium was replaced with fresh, pre-warmed tissue culture re-feeding medium (Trinity Biotech USA, Jamestown, N.Y.) several hours before the microplate was used in an experiment.
Viral exposure media were prepared by adding 0.1% D,L-lactic acid (Sigma-Aldrich, St. Louis, Mo.), D-lactic acid (Bachem Bioscience Inc., King of Prussia, Pa.), L-lactic acid, (Sigma-Aldrich, St. Louis, Mo.), acetic acid (Sigma-Aldrich) or no acid to 0.9% NaCl in deionized water. The pH of the solutions was measured and adjusted as necessary before, during, and after the experiments using an MI-410 combination pH electrode (Microelectrodes Inc., Bedford, N.H.) to pH 3.8 for all of the organic acid-containing viral exposure media. Two viral exposure media not containing an organic acid were adjusted to pH 3.8 with HCl, or to pH 7.4 with dilute NaOH. Freshly thawed viral stock was diluted 1:10 with viral exposure media and incubated for 30 minutes at 37° C. At the end of the incubation, all media were diluted ten-fold with re-feeding medium to rapidly neutralize the acidity of those media that were acidic. Three-fold serial dilutions were then made with the same growth medium. Each dilution of virus was then inoculated into two replicate wells on a microplate of Elvis™ cells. The microplate was spun at […], 25° C. for 25 minutes and incubated in a humidified incubator (5% CO2, 37° C.) for 16-24 hours. The growth medium was removed from the microplate wells, and the Elvis™ cells were fixed and stained according to the manufacturer's instructions. The microplate wells were examined on an inverted microscope for the presence of blue-stained cells, indicating viral infection.

In series [3] the test system is M. mulieris, M. curtisii, Mycoplasma hominus. The series can be described thus: Inactivation of three BV-associated organisms by L-lactic acid. The following applies: pH 4.5, 2-hour, 37° C. The format is cell-based, Mobiluncus mulieris, Mobiluncus curtisii. Here is the method: (§1) Eighteen BV-associated organisms, and four lactobacillus strains obtained from the American Type Culture Collection, Rockville Md., were grown in appropriate growth medium and incubation conditions, and exposed to a 2-hour further incubation at 37° C. in media at pH 7 without lactic acid, or at pH 4.5 with racemic lactic acid concentrations ranging from zero to 550 mM (5%). The number of organisms surviving exposure to these conditions is plotted in FIG. 4. BV-associated organisms are plotted with solid lines.

For series [4], the system named is lactobacilli. The series can be described thus: Survival of lactobacillus strains after 2-hour exposure to lactic acid. The format is cell-based, four lactobacillus strains. Here is the method:
as §1

For series [5], the system named is HeLa cells.
Protocol: The toxicity of D-lactic acid and of L-lactic acid were assessed on tissue culture monolayers using a well known cell viability assay. HeLa cells (ATCC CCL-2, a cell line derived from a cervical epithelial cancer) were grown in 96-well tissue culture plates to approximately 90% confluence in DMEM medium supplemented with 3% fetal bovine serum. Medium was removed from the wells, and replaced by the same medium now containing D- or L-lactic acid between concentrations of 0% and 1% (w/v). The plates were incubated for 30 minutes at 37° C. and 5% CO2. The wells were washed three times with 0.9% saline, and then 20 microliters of a tetrazolium viability stain (Promega CellTiter 9603 One Solution) was added. After 1 hour, the absorbance of the fluid in the wells was read with a spectrophotometer at a wavelength of 575 nanometers.
For series [6], the system named is BV-associated organisms. The series can be described thus: Survival of BV-associated organisms after 2-hour exposure to racemic lactic acid. The class given is cell-based, Eighteen BV-associated organisms. As to conditions: pH 4.5, between 10 and 100 mM (~0.1-1%) lactic acid, 37° C., versus pH 4.5 without lactic acid. As for the experimental part: as §1

As for `C[C@H](O)C(=O)O` [L-lactic acid], in series [1], the “HSV-1 inactivation, greater than D-lactic acid at pH 3.8” value is on record as “approximately 10 fold”; the “HSV-1 inactivation, more than at pH 3.8 without lactic acid” value was about 25 fold; the “HSV-1 inactivation, more than the control at pH 7.4 without lactic acid” value is on record as “approximately 80 fold”. Besides, in series [2], the “HSV-2 inactivation beyond low pH without organic acids (in words)” value is listed as “further reduced HSV-2 viability”; the “reduction of HSV-2 viability, more than low pH with D-lactic acid” value is reported as “approximately 5 fold”; the “reduction of HSV-2 viability, more than low pH without lactic acid” value is given as “approximately 11 fold”. Moreover, the “Inactivation of all three organisms at pH 4.5 with L-lactic acid versus pH 4.5 without lactic acid (in words)” value in series [3] is listed as “substantially greater”. Moreover, the “concentration not harmful to lactobacilli” value in series [4] (pH 4.5, inferred from 550 mM racemic lactic acid being 50% L-lactic acid) was “up to 280 mM”. Moreover, the “shift of dose-response for cellular cytotoxicity relative to D-lactic acid” value in series [5] was “more than 500 fold”.
As to `C[C@@H](O)C(=O)O` [D-lactic acid, reference compound], in series [2], the “HSV-2 inactivation beyond low pH without organic acids (in words)” value is given as “further reduced HSV-2 viability”.
Take `CC(O)C(=O)O` (racemic) [racemic lactic acid, D,L-lactic acid, reference compound]: the “Survival of lactobacilli (in words)” value in series [4] (pH 4.5, highest concentration tested (5% or ~550 millimolar), 2-hour, 37° C.) is reported as “survived unaltered”. Moreover, the “Inactivation of BV-associated organisms (in words)” value in series [6] is recorded as “dramatically increased”.
`CC(=O)O` [acetic acid, reference compound]: in series [2], the “HSV-2 inactivation beyond low pH without organic acids (in words)” value is reported as “did not increase the degree of inactivation”.
